Measurements published in patent US20160330959A1, “FUNGICIDAL COMPOSITIONS OF PYRAZOLECARBOXYLIC ACID ALKOXYAMIDES” (BAYER CROPSCIENCE AKTIENGESELLSCHAFT, priority 2014, published 2016).

What was measured:
Septoria tritici = assay: in vivo preventive Septoria tritici test (wheat); details: preventive spray, evaluated 21 days after inoculation
From the text: (§1) A synergistic effect of fungicides is always present when the fungicidal activity of the active compound combinations exceeds the total of the activities of the active compounds when applied individually. The expected activity for a given combination of two active compounds can be calculated as follows (cf. Colby, S. R., “Calculating Synergistic and Antagonistic Responses of Herbicide Combinations”, Weeds 1967, 15, 20-22): • If • X is the efficacy when active compound A is applied at an application rate of m ppm (or g/ha), • Y is the efficacy when active compound B is applied at an application rate of n ppm (or g/ha), • E is the efficacy when the active compounds A and B are applied at application rates of m and n ppm (or g/ha), respectively, and • then
(§2) The degree of efficacy, expressed in % is denoted. 0% means an efficacy which corresponds to that of the control while an efficacy of 100% means that no disease is observed.
To produce a suitable preparation of active compound, 1 part by weight of active compound or active compound combination is mixed with the stated amounts of solvent and emulsifier, and the concentrate is diluted with water to the desired concentration.
To test for preventive activity, young plants are sprayed with the preparation of active compound or active compound combination at the stated rate of application.
After the spray coating has been dried, the plants are sprayed with a spore suspension of Septoria tritici. The plants remain for 48 hours in an incubation cabinet at approximately 20° C. and a relative atmospheric humidity of approximately 100% and afterwards for 60 hours at approximately 15° C. in a translucent incubation cabinet at a relative atmospheric humidity of approximately 100%.
The plants are placed in the greenhouse at a temperature of approximately 15° C. and a relative atmospheric humidity of approximately 80%.
The test is evaluated 21 days after the inoculation. 0% means an efficacy which corresponds to that of the untreated control, while an efficacy of 100% means that no disease is observed.

Alternaria solani = assay: in vivo preventive test on Alternaria test (tomatoes); details: preventive spray, evaluated 3 days after inoculation
From the text: as §1, §2
To produce a suitable preparation of active compound, 1 part by weight of active compound is mixed with the stated amounts of solvent and emulsifier, and the concentrate is diluted with water to the desired concentration.
To test for preventive activity, young plants are sprayed with the preparation of active compound at the stated rate of application. After the spray coating has dried on, the plants are inoculated with an aqueous spore suspension of Alternaria solani. The plants are then placed in an incubation cabinet at approximately 20° C. and a relative atmospheric humidity of 100%.
The test is evaluated 3 days after the inoculation. 0% means an efficacy which corresponds to that of the untreated control while an efficacy of 100% means that no disease is observed.

[1] = log P by HPLC on reversed phase columns (EEC directive 79/831 Annex V.A8); assay type: physicochemical; details: pH 2.7, pH 2,7, 0.1% formic acid in water / acetonitrile gradient
Method: Measurement of log P values was performed according EEC directive 79/831 Annex V.A8 by HPLC (High Performance Liquid Chromatography) on reversed phase columns with the following methods: ^[a] Measurement of LC-MS was done at pH 2,7 with 0.1% formic acid in water and with acetonitrile (contains 0.1% formic acid) as eluent with a linear gradient from 10% acetonitrile to 95% acetonitrile. Calibration was done with not branched alkan2-ones (with 3 to 16 carbon atoms) with known log P-values (measurement of log P values using retention times with linear interpolation between successive alkanones). lambda-maX-values were determined using UV-spectra from 200 nm to 400 nm and the peak values of the chromatographic signals.

Compound | Efficacy in % found (Septoria tritici; 50 ppm a.i.) | Efficacy in % found (Alternaria solani; 0.125 ppm a.i.) | Efficacy in % found (Alternaria solani; 0.25 ppm a.i.) | other results
CC1(C)CN=C(c2cnc3ccccc3c2)c2cccc(F)c2O1 [Compound B1-1, 9-fluoro-2,2-dimethyl-5-(quinolin-3-yl)-2,3-dihydro-1,4-benzoxazepine] | 25% |  |  | 
Cc1nc2c(F)cccc2cc1Oc1cccc(F)c1C(C)(C)O [Compound B1-2, 2-{2-fluoro-6-[(8-fluoro-2-methylquinolin-3-yl)oxy]phenyl}propan-2-ol] | 0% |  |  | 
Cc1nc2c(F)c(F)ccc2cc1Oc1cccc(F)c1C(C)(C)O [Compound B1-3, 2-{2-[(7,8-difluoro-2-methylquinolin-3-yl)oxy]-6-fluorophenyl}propan-2-ol] | 25% |  |  | 
CC1(C)N=C(c2cnc3ccccc3c2)c2ccccc2C1(F)F [Compound B1-4] |  | 0% | 0% | Efficacy in % found (Alternaria solani; 0.5 ppm a.i.): 15%; Efficacy in % found (Septoria tritici; 60 ppm a.i.): 13%
CON(C(=O)c1cn(C)nc1C(F)F)C(C)Cc1c(Cl)cc(Cl)cc1Cl (stereo not drawn) [Compound I-1, 3-(difluoromethyl)-N-methoxy-1-methyl-N-[1-(2,4,6-trichlorophenyl)propan-2-yl]-1H-pyrazole-4-carboxamide] |  | 73% | 85% | Efficacy in % found (Septoria tritici; 5 ppm a.i.): 50%; Efficacy in % found (Septoria tritici; 10 ppm a.i.): 63%
CON(C(=O)c1c(C(F)F)nn(C)c1F)C(C)Cc1c(Cl)cc(Cl)cc1Cl (stereo not drawn) [Compound I-2, 3-(difluoromethyl)-5-fluoro-N-methoxy-1-methyl-N-[1-(2,4,6-trichlorophenyl)propan-2-yl]-1H-pyrazole-4-carboxamide] |  |  |  | chromatographic logP [1]: 4.29
